In patent US20250099420A1, “SMALL MOLECULE MODULATORS OF GPR139 COMPLEX” (University of Florida Research Foundation, Incorporated, priority 2022, published 2025):
pEC50: −log10 of the molar value. Where two headings read alike, the source gives them in different places.

How the values were obtained:
parental HEK cells = assay: HEK parental Agonist Counterscreen Assay (non-transfected cells); type: cell-based; settings: for Averaged Max % Response (±St. Dev.): activity relative to known control
Text: The high control for the agonist counterscreen was Forskolin not acetylcholine.

GPR139 = molecular target: T1, GPR139 (Homo sapiens, UniProt Q6DWJ6); assay: GPR139 Agonist titration / agonist counterscreen assay (calcium detection, HEK-GPR139 cells); type: cell-based; parameters: expressed in transfected cells; host or cells: HEK Aequorin cells, Maxcyte transient transfection; settings: GPR139 Agonist Activity; for pEC50: read-out: EC50; for Averaged Max % Response (±St. Dev.): activity relative to known control
T1 sequence (Q6DWJ6 1-353): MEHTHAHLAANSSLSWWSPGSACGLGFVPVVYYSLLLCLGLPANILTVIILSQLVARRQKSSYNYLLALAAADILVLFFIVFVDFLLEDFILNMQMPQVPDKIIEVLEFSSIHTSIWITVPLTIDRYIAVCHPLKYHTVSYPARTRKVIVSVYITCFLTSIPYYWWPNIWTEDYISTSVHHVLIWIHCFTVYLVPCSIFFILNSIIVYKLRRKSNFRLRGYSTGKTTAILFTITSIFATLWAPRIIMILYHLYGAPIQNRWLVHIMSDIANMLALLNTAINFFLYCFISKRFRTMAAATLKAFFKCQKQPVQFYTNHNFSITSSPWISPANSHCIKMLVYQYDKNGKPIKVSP
Protocol: GPR activity was assessed using a calcium detection assay. […] Negative control samples were treated with DMSO. […] Intracellular calcium was measured using Calcium 5.

[1] = Homo sapiens, HEK293, HEK Agonist Activity section of Table 4 (parental HEK counterscreen)
[2] = HEK Agonist Activity section of Table 4 (parental HEK counterscreen)
[3] = values printed in E-notation without unit
[4] = HEK Agonist Activity, parental non-transfected HEK cells
[5] = Homo sapiens, HEK293, HEK Agonist Activity, parental non-transfected HEK cells

| Compound | Lipophilic Efficiency (logD) (parental HEK cells; HEK Agonist Activity section) | Lipophilic Efficiency (logP) (parental HEK cells; HEK Agonist Activity section) | Averaged Max % Response (±St. Dev.) (parental HEK cells; HEK Agonist Activity section) | pEC50 (parental HEK cells; [1]) | Efficiency Ligand (GPR139) | Hill Slope (GPR139) | Lipophilic Efficiency (logD) (GPR139) | Lipophilic Efficiency (logP) (GPR139) | pEC50 (GPR139; HEK-GPR139 cells) | Averaged Max % Response (±St. Dev.) (GPR139) | Lipophilic Efficiency (logD) (GPR139; based on logD) | Lipophilic Efficiency (logP) (GPR139; based on logP) | Hill Slope (GPR139; fitted dose-response curve) | Efficiency Ligand (GPR139; ligand efficiency) | pEC50 (GPR139; [3]) | other results |
| --- | --- | --- | --- | --- | --- | --- | --- | --- | --- | --- | --- | --- | --- | --- | --- | --- |
| O=C(CC1C(=O)N(c2ccccc2)C(=O)N1Cc1ccc2c(c1)OCO2)Nc1ccc(Cl)cc1 (stereo not shown) [SR-01000428566] | 0.07 | 0.07 | 40.80 ± 6.00% | < 4.92 | 0.26 | 1.72 | 1.52 | 1.52 | 6.37 | 84.07 ± 18.43% | – | – | – | – | – | – |
| COc1ccc(NC(=O)NC(O)(O)c2cccc(C(C)=O)c2)cc1 [SR-01000428888] | 0.38 | 0.38 | −2.45 ± 12.32% | < 4.79 | 0.38 | 0.88 | 2.10 | 2.10 | 6.50 | 105.90 ± 33.97% | – | – | – | – | – | – |
| Cc1c(Cl)c(C(F)(F)F)nn1CC(=O)NCc1ccc(Cl)cc1 [SR-01000429212] | 1.05 | 1.05 | −31.95 ± 8.26% | < 4.74 | 0.34 | 0.88 | 1.94 | 1.94 | 5.64 | 80.96 ± 18.51% | – | – | – | – | – | – |
| CCn1c2ccccc2c2cc(C3C(C#N)=C(N)Oc4n[nH]c(C)c43)ccc21 (stereo not shown) [SR-01000465824] | 1.72 | 1.67 | −11.98 ± 3.62% | – | 0.27 | 1.13 | 2.21 | 2.16 | 5.42 | 68.48 ± 7.96% | – | – | – | – | – | pEC50 (parental HEK cells; [2]): < 4.93 |
| CCN(Cc1ccccc1)C(=O)Cn1cnc2sc(O)c(C)c2c1=O [SR-01000468553] | 1.48 | 1.48 | 35.00 ± 2.11% | < 4.73 | 0.36 | 0.84 | 3.11 | 3.11 | 6.36 | 109.12 ± 32.80% | – | – | – | – | – | – |
| O=C(CCOc1ccccc1)NCC1COc2ccccc2O1 (stereo not shown) [SR-01000479007] | 2.56 | 2.56 | 8.46 ± 4.77% | – | 0.40 | 1.21 | 4.24 | 4.24 | 6.56 | 101.79 ± 19.12% | – | – | – | – | – | pEC50 (parental HEK cells; [2]): < 4.88 |
| Cc1ccccc1NC(=O)CSC1=C(C#N)C(c2ccccc2C(F)(F)F)C2=C(CCCC2=O)N1 (stereo not shown) [SR-01000484454] | −0.16 | −0.16 | 27.15 ± 8.69% | – | – | – | – | – | – | 96.91 ± 19.53% | 1.98 | 1.98 | 0.52 | 0.28 | 7.07 | pEC50 (parental HEK cells; [2]): < 4.92 |
| Cc1ccc(NC(=O)CSC2=C(C#N)C(c3ccc(F)cc3)CC(=O)N2)c(C)c1 (stereo not shown) [SR-01000484494] | 0.89 | 0.89 | 14.09 ± 3.35% | – | 0.28 | 0.89 | 1.82 | 1.82 | 5.72 | 114.96 ± 19.78% | – | – | – | – | – | pEC50 (parental HEK cells; [2]): < 4.80 |
| COc1cc(-c2nnc(COc3ccc(Cl)cc3C)o2)cc(OC)c1OC [SR-01000504687] | – | – | – | – | – | – | – | – | – | 92.66 ± 5.93% | 4.45 | 4.45 | 0.62 | 0.40 | 7.71 | Lipophilic Efficiency (logD) (parental HEK cells; HEK Agonist Activity): 1.65; Lipophilic Efficiency (logP) (parental HEK cells; HEK Agonist Activity): 1.65; Averaged Max % Response (±St. Dev.) (parental HEK cells; HEK Agonist Activity): −3.10 ± 6.59%; pEC50 (parental HEK cells; [4]): < 4.91 |
| Cc1cccc(C(=O)NNC(=O)CCc2ccccc2)c1 [SR-01000513008] | 1.74 | 1.74 | −5.44 ± 7.74% | < 4.77 | 0.42 | 0.93 | 3.32 | 3.32 | 6.34 | 109.30 ± 27.76% | – | – | – | – | – | – |
| CC(Oc1ccc(Cl)cc1Cl)C(=O)NNC(=O)c1ccc(F)cc1 (stereo not shown) [SR-01000520452] | 1.26 | 1.13 | 1.29 ± 6.31% | < 4.80 | – | – | – | – | – | 113.17 ± 28.03% | 3.08 | 2.96 | 0.85 | 0.39 | 6.63 | – |
| CC(Oc1ccc(O)cc1Cl)C(=O)NNC(=O)c1cccc(F)c1 (stereo not shown) [SR-01000520454] | – | – | – | – | – | – | – | – | – | 113.77 ± 7.21% | 5.60 | 5.48 | – | 0.53 | < 9.15 | Lipophilic Efficiency (logD) (parental HEK cells; HEK Agonist Activity): 1.31; Lipophilic Efficiency (logP) (parental HEK cells; HEK Agonist Activity): 1.19; Averaged Max % Response (±St. Dev.) (parental HEK cells; HEK Agonist Activity): 15.83 ± 2.96%; pEC50 (parental HEK cells; [5]): < 4.86 |
| Cn1cnnc1SCc1ccc(F)c2ccccc12 [SR-01000524029] | – | – | – | – | – | – | – | – | – | 98.34 ± 6.18% | 4.61 | 4.61 | 0.92 | 0.57 | 7.79 | Lipophilic Efficiency (logD) (parental HEK cells; HEK Agonist Activity): 1.61; Lipophilic Efficiency (logP) (parental HEK cells; HEK Agonist Activity): 1.61; Averaged Max % Response (±St. Dev.) (parental HEK cells; HEK Agonist Activity): 9.45 ± 2.06%; pEC50 (parental HEK cells; [4]): < 4.80 |
| CC1=CN=C(CCc2ccc(F)c3ccccc23)C1 [SR-01000525232] | – | – | – | – | – | – | – | – | – | 96.70 ± 23.19% | 4.05 | 4.05 | 0.19 | 0.57 | – | Lipophilic Efficiency (logD) (parental HEK cells; HEK Agonist Activity): 1.09; Lipophilic Efficiency (logP) (parental HEK cells; HEK Agonist Activity): 1.09; Averaged Max % Response (±St. Dev.) (parental HEK cells; HEK Agonist Activity): −17.88 ± 3.50%; pEC50 (parental HEK cells; [5]): < 4.76 |
| COc1ccc(SCC(=O)NNC(=S)Nc2ccccc2)cc1 [SR-01000526835] | 1.85 | 1.85 | 7.64 ± 8.84% | < 4.86 | 0.37 | 1.15 | 3.01 | 3.01 | 6.02 | 81.65 ± 6.38% | – | – | – | – | – | – |
